The record followed here is ChEMBL document CHEMBL1201862, “PubChem BioAssay data set” (2004).

Active and inactive are the calls of the source.

Experiment [1] is described as follows: NIH-3T3 fibroblast cytotoxicity, dose response, cytotoxicity control, cell-based, fluorescence, Alamar Blue, secondary assay (AID 2327).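 Note: NIH-3T3 mouse fibroblasts cultured with fluconazole at 8 µg/mL.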 In kind it is functional.
For experiment [2], the system named is Streptococcus sp. 'group A'. In words: Streptococcus pyogenes SK(-)GAS viability under kanamycin – luminescence, BacTiterGlo, confirmation, counter-screen for streptokinase expression inhibitor project, dose response (AID 1900). It counts as functional, organism-based.
Experiment [3] can be described thus: fluconazole-exposed Candida albicans growth modulators – fluorescence, retest, confirmation (AID 2467). It counts as functional, cell-based.
For experiment [4], the system named is Streptococcus. As to the kind of experiment: GAS UMAA2166 growth inhibition – luminescence, BacTiterGlo, counter-screen for streptokinase expression inhibitor project, dose response (AID 1915).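 Note: potency for reduction of bacterial viability or growth.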 It counts as functional, organism-based.
Experiment [5] deals with T1, Caspase-3 (Homo sapiens, UniProt P42574).
T1 sequence (P42574 whole entry): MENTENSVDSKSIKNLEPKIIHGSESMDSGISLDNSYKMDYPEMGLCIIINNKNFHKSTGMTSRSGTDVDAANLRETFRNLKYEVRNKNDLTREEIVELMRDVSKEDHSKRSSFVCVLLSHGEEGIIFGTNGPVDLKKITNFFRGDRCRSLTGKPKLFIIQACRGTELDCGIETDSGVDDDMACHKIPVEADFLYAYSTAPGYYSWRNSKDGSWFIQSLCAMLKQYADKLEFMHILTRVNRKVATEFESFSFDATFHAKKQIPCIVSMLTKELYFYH
In words: activation of caspase-3 zymogen – biochemical, absorbance, dose response (AID 489014).

Experiment [6] can be described thus: THP-1 cell cytotoxicity, dose response, cytotoxicity control for non-replicating M. tuberculosis project (AID 489025). It counts as functional.
The target of experiment [7] is T2, Caspase-7 (Homo sapiens, UniProt P55210).
T2 sequence (P55210 whole entry): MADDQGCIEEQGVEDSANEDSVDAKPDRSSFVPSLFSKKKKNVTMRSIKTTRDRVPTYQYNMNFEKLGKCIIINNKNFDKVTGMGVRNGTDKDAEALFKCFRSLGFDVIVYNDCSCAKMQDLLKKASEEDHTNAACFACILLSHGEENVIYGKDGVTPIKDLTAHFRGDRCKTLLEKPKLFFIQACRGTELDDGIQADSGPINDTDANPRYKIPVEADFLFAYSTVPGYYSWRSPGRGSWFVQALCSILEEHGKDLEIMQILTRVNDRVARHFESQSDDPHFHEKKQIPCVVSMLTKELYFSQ
In words: activation of caspase-7 zymogen – biochemical, absorbance, counter-screen for procaspase-3 activator project, dose response (AID 489013).

The nature of experiment [8]: Vero E6 cell cytotoxicity, dose response, cytotoxicity control for non-replicating M. tuberculosis project, secondary assay (AID 492998). It counts as functional, VeroE6. The settings on record: Vero C1008.
Experiment [9] can be described thus: cells. In kind it is functional.
Experiment [10] deals with T3, Short transient receptor potential channel 4 (Mus musculus, UniProt Q9QUQ5).
T3 sequence (Q9QUQ5 whole entry): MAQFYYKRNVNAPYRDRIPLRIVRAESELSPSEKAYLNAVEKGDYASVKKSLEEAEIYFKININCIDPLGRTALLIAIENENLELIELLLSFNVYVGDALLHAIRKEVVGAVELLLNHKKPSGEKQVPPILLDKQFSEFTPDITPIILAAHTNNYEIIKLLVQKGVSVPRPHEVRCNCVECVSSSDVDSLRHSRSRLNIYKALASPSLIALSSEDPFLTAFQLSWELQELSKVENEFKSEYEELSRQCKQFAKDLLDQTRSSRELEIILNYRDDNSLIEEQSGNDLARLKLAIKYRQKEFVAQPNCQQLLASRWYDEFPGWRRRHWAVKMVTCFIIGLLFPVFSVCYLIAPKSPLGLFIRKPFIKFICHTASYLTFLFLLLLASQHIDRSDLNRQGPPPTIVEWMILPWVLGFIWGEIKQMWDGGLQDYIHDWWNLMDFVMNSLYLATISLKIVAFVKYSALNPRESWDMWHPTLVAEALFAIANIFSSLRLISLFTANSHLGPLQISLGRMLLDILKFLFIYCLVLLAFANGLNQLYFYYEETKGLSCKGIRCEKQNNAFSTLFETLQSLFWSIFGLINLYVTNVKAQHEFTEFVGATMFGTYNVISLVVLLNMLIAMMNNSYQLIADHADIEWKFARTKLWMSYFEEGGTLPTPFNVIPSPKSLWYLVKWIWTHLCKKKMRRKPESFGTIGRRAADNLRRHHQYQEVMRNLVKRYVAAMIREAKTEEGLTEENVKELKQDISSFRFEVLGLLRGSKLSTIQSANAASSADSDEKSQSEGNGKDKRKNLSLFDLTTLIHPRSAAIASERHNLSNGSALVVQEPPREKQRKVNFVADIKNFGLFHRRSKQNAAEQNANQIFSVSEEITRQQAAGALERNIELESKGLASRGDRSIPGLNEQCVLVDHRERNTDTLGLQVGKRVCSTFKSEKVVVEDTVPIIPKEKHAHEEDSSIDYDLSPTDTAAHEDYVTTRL
In words: potentiation of DAMGO-evoked TRPC4 calcium signal – cell-based, HEK293 TRPC4/mu-opioid, Fluo-4 calcium, EC20 DAMGO, dose response (AID 434941).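 Note: HEK293 cells coexpressing TRPC4 and mu opioid receptor stimulated by EC20 DAMGO.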 In kind it is functional.

In experiment [11] the test system is Vero. As to the kind of experiment: mammalian cell viability reduction – secondary assay, cytotoxicity control for West Nile virus antiviral project, dose response (AID 1650). In kind it is functional. Particulars: Chlorocebus sabaeus.
Experiment [12] can be described thus: Trypanosoma cruzi growth suppression in host cells – NIH3T3 host cells, beta-gal luminescence, confirmation (AID 2044).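 Note: intracellular parasites grown in NIH/3T3 mouse fibroblasts as host cells; luminescent beta-galactosidase reporter signal from transgenic T. cruzi replicating inside host cells; inhibitors lower the luminescence signal.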 It counts as functional, cell-based.
Experiment [13] is described as follows: NIH3T3 cell viability loss – ATP luminescence, mouse fibroblasts, counter-screen, dose response (AID 2010).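 Note: cells exposed to compound for about 90 hours before reading.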 It counts as functional, cell-based.
The target in experiment [14] is T4, Ubiquitin-conjugating enzyme E2 N (Homo sapiens, UniProt P61088).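 Note: Dose-response confirmation in a TR-FRET assay detecting UBC13-driven polyubiquitin chain formation, inhibition measured.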
T4 sequence (P61088 whole entry): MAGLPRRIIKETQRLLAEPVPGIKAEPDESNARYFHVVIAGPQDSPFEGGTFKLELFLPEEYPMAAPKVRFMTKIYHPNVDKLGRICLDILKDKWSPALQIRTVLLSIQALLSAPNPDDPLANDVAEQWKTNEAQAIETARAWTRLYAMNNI
It counts as functional.

Experiment [15] has as its target T5, ORF 73 (Human herpesvirus 8, UniProt O40947).
T5 sequence (O40947 whole entry): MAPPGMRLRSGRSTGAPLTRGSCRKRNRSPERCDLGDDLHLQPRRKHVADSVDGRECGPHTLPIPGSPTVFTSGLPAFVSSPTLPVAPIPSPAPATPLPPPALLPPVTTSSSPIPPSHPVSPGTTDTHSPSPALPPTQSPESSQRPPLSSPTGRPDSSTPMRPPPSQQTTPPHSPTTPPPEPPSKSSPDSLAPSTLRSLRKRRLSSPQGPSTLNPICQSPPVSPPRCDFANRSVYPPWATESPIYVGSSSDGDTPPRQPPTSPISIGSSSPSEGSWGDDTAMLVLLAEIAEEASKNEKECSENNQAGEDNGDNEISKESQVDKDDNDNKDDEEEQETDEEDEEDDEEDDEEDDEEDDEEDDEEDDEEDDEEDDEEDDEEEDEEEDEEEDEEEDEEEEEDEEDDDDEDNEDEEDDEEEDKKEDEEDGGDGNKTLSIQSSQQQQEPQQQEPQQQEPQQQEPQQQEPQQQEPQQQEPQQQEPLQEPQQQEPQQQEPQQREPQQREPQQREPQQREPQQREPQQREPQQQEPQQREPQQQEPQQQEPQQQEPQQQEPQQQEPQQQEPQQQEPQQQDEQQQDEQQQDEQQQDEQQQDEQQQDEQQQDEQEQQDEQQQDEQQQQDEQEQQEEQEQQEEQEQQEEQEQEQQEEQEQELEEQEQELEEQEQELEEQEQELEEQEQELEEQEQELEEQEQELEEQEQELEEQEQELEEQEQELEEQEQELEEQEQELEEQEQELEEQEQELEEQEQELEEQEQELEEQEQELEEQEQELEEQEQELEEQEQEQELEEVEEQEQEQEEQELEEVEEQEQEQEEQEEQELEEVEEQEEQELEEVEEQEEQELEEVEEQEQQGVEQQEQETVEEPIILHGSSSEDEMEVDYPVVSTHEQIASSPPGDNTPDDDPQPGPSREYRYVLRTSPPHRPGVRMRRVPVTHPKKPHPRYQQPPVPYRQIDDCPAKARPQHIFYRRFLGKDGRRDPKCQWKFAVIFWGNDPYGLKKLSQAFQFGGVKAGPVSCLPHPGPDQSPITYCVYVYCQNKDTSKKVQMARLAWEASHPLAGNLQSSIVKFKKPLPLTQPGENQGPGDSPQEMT
In words: KSHV LANA DNA-binding disruption – biochemical, fluorescence polarization, cherry-picked samples, dose response (AID 504725).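 Note: fluorescence polarization of a labeled DNA duplex reporting LANA DNA binding; potency is for inhibitors that block LANA binding to the DNA.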 Also noted: species or system Human gammaherpesvirus 8.

The target in experiment [16] is Troponin, cardiac muscle (Homo sapiens, UniProt P19429+P45379+P63316). As to the kind of experiment: compounds desensitizing RTF to calcium – biochemical, fluorescence, cardiac regulated thin filaments, triplicate IC50, dose response (AID 504742). In kind it is protein-complex assay.
Experiment [17] has as its target T6, Rac GTPase-activating protein 1 (Homo sapiens, UniProt Q9H0H5).
T6 sequence (Q9H0H5 whole entry): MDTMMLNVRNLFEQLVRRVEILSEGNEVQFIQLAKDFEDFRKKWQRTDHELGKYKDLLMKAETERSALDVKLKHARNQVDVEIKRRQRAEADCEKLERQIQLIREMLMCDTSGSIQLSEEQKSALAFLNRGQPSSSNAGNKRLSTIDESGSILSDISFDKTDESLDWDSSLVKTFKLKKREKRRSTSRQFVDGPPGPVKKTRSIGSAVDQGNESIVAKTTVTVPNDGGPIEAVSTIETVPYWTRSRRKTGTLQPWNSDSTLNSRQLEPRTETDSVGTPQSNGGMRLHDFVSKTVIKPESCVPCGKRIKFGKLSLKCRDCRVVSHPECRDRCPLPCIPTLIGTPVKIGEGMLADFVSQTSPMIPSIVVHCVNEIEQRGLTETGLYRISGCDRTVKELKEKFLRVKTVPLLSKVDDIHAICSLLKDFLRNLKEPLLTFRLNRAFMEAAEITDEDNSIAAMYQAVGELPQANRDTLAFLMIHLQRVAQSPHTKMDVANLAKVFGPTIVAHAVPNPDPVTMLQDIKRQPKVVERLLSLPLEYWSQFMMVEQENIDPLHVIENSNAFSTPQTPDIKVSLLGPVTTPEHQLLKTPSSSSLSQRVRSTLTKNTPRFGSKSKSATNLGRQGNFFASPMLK
In words: blockers of MgcRacGAP-driven Rac1 GTP hydrolysis – biochemical, ADP Hunter fluorescence, primary and confirmatory, confirmation (AID 624330). It counts as functional.

Regarding `CC(=O)Oc1c(-c2ccc(Br)o2)oc2ccccc2c1=O`, the EC50 is > 150 µM (inactive) in [1]; 2.26 µM (active) in experiment [2]; 1.36 µM (active) in experiment [3]; 9.2 µM (active) in experiment [4]; 33.4 µM (inactive) in experiment [5]; > 85.3 µM (inactive) in experiment [7]. Moreover, the CC50 in experiment [6] is > 40 µM (active); in experiment [8], 16.3 µM (active). Further, the IC50 in experiment [9] is 4.63 µM (active).

For the molecule `Cc1cc2oc(C(=O)N(Cc3ccccc3)C3CCS(=O)(=O)C3)cc(=O)c2cc1Cl` (stereo not drawn), in experiment [10], the 50% effective concentration (EC50) was 3.76 µM (active).

For the molecule `CCCCN(CC)CCNC(=O)c1cc2c(=O)n(C)c3ccccc3c2s1`, the CC50 in [11] is 69 µM (active). For the same molecule, the EC50 in experiment [12] was 2.29 µM (active); in [13], > 60 µM (not active); in [10], 0.07 µM (active). In addition, the IC50 in experiment [14] is > 20 µM (inactive).

Take `O=C1C(=Cc2ccco2)CCC1=Cc1ccco1`: the AC50 in experiment [15] was 63 µM (active). Moreover, the results for the IC50 in [16] and in experiment [17] were > 71.5 µM (inactive) and 32.4 µM (active), respectively.
